Test results: patent publication US12310963B2, “Pyrazole derivatives and use thereof” (Tarapeutics Science Inc., priority 2019, dated 2025)

Legend:
[1] = tested on: BaF3-TEL-FGFR2 (stably expressing FGFR2 kinase); assay: Growth of BaF3-TEL-FGFR2 cells, Cell Titer-Glo, 72 h; format: cell-based, mouse
Text: (§1) In this example, mouse primary B cell BaF3 (purchased from ATCC, U.S.A.) was used. In addition, in this example, mouse BaF3-tel-PDGFRα (stably expressing PDGFRα kinase), mouse BaF3-tel-PDGFRβ (stably expressing PDGFRβ kinase), BaF3-P210 (stably expressing ABL kinase), BaF3-P210-T315I (stably expressing ABL-T315I kinase), BaF3-FL-BRAF-V600E (stably expressing BRAF-V600E kinase), BaF3-TEL-cKIT (stably expressing cKIT kinase), BaF3-TEL-VEGFR2 (stably expressing VEGFR2 kinase), BaF3-TEL-FGFR2 (stably expressing FGFR2 kinase) were also used. The above-mentioned cell trains were all constructed in our laboratory by the method as follows. The sequences of human BCR-ABL (P210 or P210/T315I mutated), full-length BRAF-V600E, cKIT, VEGFR2, FGFR2, PDGFRα, PDGFRβ kinase region were amplified respectively via PCR, and inserted respectively into a MSCV-Puro vector (purchased from Clontech) having a N-terminal TEL fragment and/or NPM fragment and/or TPR fragment, and stably transferred into mouse BaF3 cells by the retroviral method, and the growth factor IL-3 was removed. Eventually, cell lines which are transferred into proteins depending on PDGFRα, PDGFRβ were obtained.
(§2) In this example, solutions of the test compound at different concentrations (0.000508 μM, 0.00152 μM, 0.00457 μM, 0.0137 μM, 0.0411 μM, 0.123 μM, 0.370 μM, 1.11 μM, 3.33 μM, 10 μM) were added to the above cells. […]

[2] = tested on: pulmonary arterial hypertension (PAH); assay: Rat model of pulmonary arterial hypertension (PAH), monocrotaline-induced; format: in vivo; details: for mPAP, difference as compared with the vehicle group: p<0.001
Protocol: SCXK (SU) 2017-0001. These rats were fed with conventional pellet feeds (Jiangsu Xietong Bio. Co., Ltd.), and were raised in a clean animal room with 12h/12h light/dark cycle. The rats were fed with foods and drinking water on an ad libitum basis. The temperature was maintained at 20-26° C., and the relative humidity was 40-70%. 120 SD rats were divided into 24 cages with 5 rats per group. […] The animals were treated in strict accordance with animal ethics regulations throughout the experiment. According to the method described in “Pharmaceutical experimental animal models: Fabrication and application” and the Standard Operating Procedure for PAH Model Construction of Model Animal Center, rats were intraperitoneally injected with a solution of 1% monocrotaline (MCT, purchased from Sigma, U.S.A.) once at a dose of 35 mg/kg. On Day 7 after the first injection of MCT, MCT was injected again at a dose of 20 mg/kg. The rats in the normal control group were intraperitoneally injected with an equivalent amount of water as a blank solvent. The specific steps were as follows: After the rats in each of the cages were fasted for 8 hours, each of the rats was weighed and recorded for the basic body weight after fasting; based on the measured basic body weight for each of the rats, the amount of MCT required to be injected for each of the rats was calculated according to the modeling dose of 35 mg/kg; based on the amount of MCT required to be injected for each of the rats, the dose for injection of a 1% MCT solution was calculated; the rats were fixed in a holder and intraperitoneally injected with the 1% MCT solution at the calculated dose; the rats were returned to the cages for routine feeding after the injection. […] The blood gas analyzer was operated following the standard operation procedure. […] Each of the rats was administered by gavage once a day starting from the day of regrouping at Week 4. The rats in the negative control group were daily administered by gavage with an equal volume of methylcellulose as vehicle. The rats in each of the groups were administered by gavage for consecutive 4 weeks (i.e., 28 days). […] The rats were weighed after fasting overnight twice a week. The administration dosage was calculated based on the weighing results. […] After the rats were under anesthesia, the pulmonary arterial pressure and the right ventricular systolic pressure of rats were measured. […] The steps were as follows. A No. 3.5 umbilical vein catheter was connected to a system pressure transducer. A formulated solution of […] sodium (purchased from Sangon) was filled into the transducer and the catheter, and bubbles were discharged. The anesthetized rat was placed on a surgical anatomical plate that is adjustable in its temperature. The temperature of the plate was adjusted to be maintained at about 37° C. The rat was fixed in supine position. The neck skin was cut with scissors to the edge of the clavicle, followed by blunt dissection of subcutaneous tissues and muscles, exposing the right external jugular vein. The adipose tissue on the surface was removed with ophthalmic surgical scissors. The external jugular vein was ligated at the […] surgical thread, and a loose knot was made at the proximal end for reserve. The external jugular vein was gently lifted with ophthalmic tweezers and cut with ophthalmic scissors to make a “V” opening. The catheter was quickly inserted, and the loose knot at the proximal end was tightened slightly to prevent bleeding. […] The catheter was further inserted slowly forward, and entered into the pulmonary artery at about 5 cm. […] The blood was transferred into an anticoagulation tube, and loaded in a blood gas analyzer to determine the indexes of partial pressure of oxygen (pO2), partial pressure of carbon dioxide (pCO2) and blood oxygen saturation (SaO2) in the blood.

[3] = tested on: BaF3-TEL-VEGFR2 (stably expressing VEGFR2 kinase); assay: Growth of BaF3-TEL-VEGFR2 cells, Cell Titer-Glo, 72 h; format: cell-based, mouse
Text: as §1, §2

[4] = tested on: BaF3; assay: Growth of parental BaF3 cells, Cell Titer-Glo, 72 h; format: cell-based; details: Mus musculus
Text: as §1
(§3) In this example, solutions of the test compound at different concentrations (0.000508 μM, 0.00152 μM, 0.00457 μM, 0.0137 μM, 0.0411 μM, 0.123 μM, 0.370 μM, 1.11 μM, 3.33 μM, 10 μM) were added to the above cells. The cells were incubated for 72 hours.

[5] = tested on: BaF3-tel-PDGFRα (stably expressing PDGFRα kinase); assay: Growth of BaF3-tel-PDGFRα cells, Cell Titer-Glo, 72 h; format: cell-based, mouse
Text: as §1, §3

[6] = tested on: BaF3-tel-PDGFRβ (stably expressing PDGFRβ kinase); assay: Growth of BaF3-tel-PDGFRβ cells, Cell Titer-Glo, 72 h; format: cell-based, mouse
Text: as §1, §3

[7] = 45 mg/kg by gavage, 28 days, P<0.001
[8] = high-dose group (45 mg/kg), P<0.001
[9] = medium-dose group (30 mg/kg), P<0.01

`Cc1ccc(NC(=O)c2cccc(C(F)(F)F)n2)cc1-n1cc(-c2cncc(N3CCN(C)CC3)c2)cn1` [Compound 1, N-(4-methyl-3-(4-(5-(4-methylpiperazin-1-yl)pyridin-3-yl)-1H-pyrazol-1-yl)phenyl)-6-(trifluoromethyl)picolinamide] was tested, and the GI50 ([1]; BaF3-TEL-FGFR2 cells, 72 hours) was 3.26 µM, the “inhibitory effect against FGFR2 (in words)” value ([1]; summary of Table 2) was “no inhibitory effect, or a relatively weak inhibitory effect” and the “mPAP, difference as compared with the vehicle group” value ([2]; 15 mg/kg by gavage, 28 days) was “extremely significantly different”. For the same compound, the “RVSP, difference as compared with the groups of imatinib and bosentan” value ([2]; 30 mg/kg by gavage, 28 days) was “no significant difference”, the “mPAP, difference as compared with the groups of bosentan and imatinib” value ([2]; 30 mg/kg by gavage, 28 days) was “no significant difference” and the “RVSP, difference as compared with the vehicle group” value ([2]; 30 mg/kg by gavage, 28 days, P<0.001) was “extremely significantly different”. For the same compound, the “mPAP, difference as compared with the vehicle group” value ([2]; 30 mg/kg by gavage, 28 days) was “extremely significantly different”, the “RVI, difference as compared with the groups of imatinib and bosentan” value ([2]; 45 mg/kg by gavage, 28 days) was “no significant difference” and the “RVSP, difference as compared with the groups of imatinib and bosentan” value ([2]; 45 mg/kg by gavage, 28 days) was “no significant difference”. For the same compound, the “mPAP, difference as compared with the groups of bosentan and imatinib” value ([2]; 45 mg/kg by gavage, 28 days) was “no significant difference”, the “RVI, difference as compared with the vehicle group” value [2, 7] was “extremely significantly different” and the “RVSP, difference as compared with the vehicle group” value [2, 7] was “extremely significantly different”. The “mPAP, difference as compared with the vehicle group” value ([2]; 45 mg/kg by gavage, 28 days) was “extremely significantly different”, the “partial pressure of carbon dioxide (pCO2), difference as compared with the vehicle group” value [2, 8] was “extremely significantly different” and the “partial pressure of oxygen (pO2), difference as compared with the vehicle group” value [2, 8] was “extremely significantly different”. For the same compound, the “blood oxygen saturation (SaO2), difference as compared with the vehicle group” value ([2]; high-dose group (45 mg/kg), p<0.05) was “significantly different”, the “RVI decrease as compared with the negative control group” value (shortened to “RVI decrease”) ([2]; high-dose group, 45 mg/kg by gavage, 28 days) was 29.6% and the “RVI decrease” value ([2]; low-dose group, 15 mg/kg by gavage, 28 days) was 5.5%. The “partial pressure of carbon dioxide (pCO2), difference as compared with the vehicle group” value [2, 9] was “extremely significantly different”, the “partial pressure of oxygen (pO2), difference as compared with the vehicle group” value [2, 9] was “extremely significantly different” and the “RVI decrease” value ([2]; medium-dose group, 30 mg/kg by gavage, 28 days) was 9.4%. For the same compound, the GI50 ([3]; BaF3-TEL-VEGFR2 cells, 72 hours) was 4 µM, the “inhibitory effect against VEGFR2 (in words)” value ([3]; summary of Table 2) was “no inhibitory effect, or a relatively weak inhibitory effect” and the GI50 [4] was 4.08 µM. The GI50 [5] was 0.056 µM and the GI50 [6] was 0.43 µM.
